Molecules are shown by their SMILES.

The target in one experiment is T1, purified HLA DRB1*0301 (Homo sapiens, UniProt P01903+P01911, A100K/A102G/A103R/A169T/F55Y/I96L/K41T/L162R/M171V/P40S/Q125H/Q178H/Q39Y/R42S/S66N/T106N/T262R/W38E/Y61H).
T1 construct: purified from EBV transformed homozygous cell lines or single MHC allele transfected 721.221, C1R, or fibroblast lines; made in house
Nature of the experiment: HLA-DR radioligand binding inhibition assay, DRB1*0301. The following applies: IC50 nM purified HLA DRB1 *0301, purified HLA DRB1*0301. The procedure:
(§1) Instead, wells of an opaque white 96-well Optiplate (Packard) are coated with 3 μg (100 μl@ 30 μg/ml) of HLA-specific antibody (Ab) that “capture” complexes of radiolabeled MHC and unlabeled peptide transferred from the molecular binding assay plate in 100 μl of 0.05% NP40/PBS. After a 3-hour incubation period, the supernatant is decanted and scintillation fluid (Microscint 20) added. Captured complexes are then measured on a microplate scintillation and luminescence counter (TopCount NXTTM; Packard).
(§2) HLA-DR purification. Fifteen distinct HLA-DR molecules were used in quantitative assays to measure the binding of peptides to solubilized HLA-DR molecules. […] Briefly, columns of inactivated Sepharose CL4B and Protein A Sepharose were used as pre-columns. HLA-DR molecules were captured by passage of lysates over LB3.1 monoclonal antibody (anti-HLA-DRA) columns. Antibody columns were washed with 10 mM Tris-HCL, pH8.0 with 1% (v/v) NP-40, followed by PBS containing 0.4% (w/v) n-octylglucoside.
(§3) Briefly, 1-10 nM of radiolabeled peptide was co-incubated for 2 days at either room temperature or 37° C. with 1 μM to 1 nM purified HLA-DR molecules in the presence of a cocktail of protease inhibitors. Assays were performed at various pH conditions, ranging from pH 4 to pH 7. […] After incubation, the percentage of HLA-DR-bound radioactivity is determined by capturing HLA-DR/peptide complexes on Optiplates (Packard Instruments, Meriden, Conn.) coated with the LB3.1 antibody and determining bound counts per minute using the TopCount microscintillation counter (Packard Instruments).

A further experiment deals with T2, purified HLA DRB1*0401 (Homo sapiens, UniProt P01903+P01911, A100K/A169T/F76Y/I96L/K127E/L162R/M171V/N62H/P40V/Q125Y/R42H/S133A/S149N/S66Y/V115G/V209L/W38E).
T2 construct: purified from EBV transformed homozygous cell lines or single MHC allele transfected 721.221, C1R, or fibroblast lines; made in house
The experiment in a line: HLA-DR radioligand binding inhibition assay, DRB1*0401. The following applies: IC50 nM purified HLA DRB1 *0401, purified HLA DRB1*0401. A digest of the protocol:
(§4)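 First, HLA-DR was purified from lysates on LB3.1 columns. Then 1 μM to 1 nM protein was incubated 2 days with 1-10 nM radiolabeled peptide at pH 4 to 7. Finally, complexes were captured for 3 hours and bound cpm determined.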

Another experiment deals with T3, purified HLA DRB1*0405 (Homo sapiens, UniProt P01903+P01911, A100R/A169T/D86S/F76Y/I96L/K127E/L162R/M171V/N62H/P40V/Q125Y/R42H/S133A/S149N/S66Y/V115G/V209L/W38E).
T3 construct: purified from EBV transformed homozygous cell lines or single MHC allele transfected 721.221, C1R, or fibroblast lines; made in house
The experiment in a line: HLA-DR radioligand binding inhibition assay, DRB1*0405. The following applies: IC50 nM purified HLA DRB1 *0405, purified HLA DRB1*0405. A digest of the protocol: as §4

Another experiment has as its target T4, purified HLA DRB1*0701 (Homo sapiens, UniProt P01903+P01911, A100R/A102G/A103Q/D57E/D86V/E43K/F76Y/K127E/L162R/M171V/P40G/Q125H/Q99D/R33Q/R42Y/R54Q/S133A/S66F/T210M/V115G/Y107V/Y59L/Y89S).
T4 construct: purified from EBV transformed homozygous cell lines or single MHC allele transfected 721.221, C1R, or fibroblast lines; made in house
Nature of the experiment: HLA-DR radioligand binding inhibition assay, DRB1*0701. The following applies: IC50 nM purified HLA DRB1 *0701, purified HLA DRB1*0701. Put shortly: as §4

The target in another experiment is T5, purified HLA DRB1*0901 (Homo sapiens, UniProt P01903+P01911, A100R/A103E/D57H/D86V/F55Y/F60I/F76Y/I96F/K127E/L162R/M171V/P40D/Q125H/Q99R/R33Q/R42F/S133A/S66N/T210M/V115G/W38K/Y107V/Y59G/Y89S).
T5 construct: purified from EBV transformed homozygous cell lines or single MHC allele transfected 721.221, C1R, or fibroblast lines; made in house
The experiment in a line: HLA-DR radioligand binding inhibition assay, DRB1*0901. The following applies: IC50 nM purified HLA DRB1 *0901, purified HLA DRB1*0901. The method, then:
as §1, §2, §3

The target of another experiment is T6, purified HLA DRB1*1101 (Homo sapiens, UniProt P01903+P01911, A100R/A169T/A87E/I96F/K41T/L162R/M171V/P40S/Q125H/Q178H/Q39Y/Q99D/R42S/S66Y/T262R/V115G/W38E).
T6 construct: purified from EBV transformed homozygous cell lines or single MHC allele transfected 721.221, C1R, or fibroblast lines; made in house
The experiment in a line: HLA-DR radioligand binding inhibition assay, DRB1*1101. The following applies: IC50 nM purified HLA DRB1 *1101, purified HLA DRB1*1101. Put shortly:
as §4

The next experiment concerns the target T7, purified HLA DRB1*1201 (Homo sapiens, UniProt P01903+P01911, A100R/A169T/D57E/D86V/F55L/H45Y/K41T/L162R/M171V/P40S/Q125H/Q178H/Q39Y/Q99D/R42G/S66L/T262R/V114A/V67L/W38E/Y59H/Y61H/Y89S).
T7 construct: purified from EBV transformed homozygous cell lines or single MHC allele transfected 721.221, C1R, or fibroblast lines; made in house
Nature of the experiment: HLA-DR radioligand binding inhibition assay, DRB1*1201. The procedure:
as §1
as §2, with “n-octylglucoside. […] The pH was reduced to 8.0 and the eluates were concentrated by centrifugation in Centriprep 30 concentrators at 2000 rpm (Amicon, Beverly, Mass.).” for “n-octylglucoside.”
as §3, with “Instruments). […] Competitor peptides are tested in 2-4 complete, independent experiments, at concentrations ranging from […].” for “Instruments).”

In another experiment the target is T8, purified HLA DRB1*1302 (Homo sapiens, UniProt P01903+P01911, A100E/A169T/K41T/L162R/M171V/P40S/Q125H/Q178H/Q39Y/Q99D/R42S/S66N/T262R/V115G/W38E/Y61H).
T8 construct: purified from EBV transformed homozygous cell lines or single MHC allele transfected 721.221, C1R, or fibroblast lines; made in house
Nature of the experiment: HLA-DR radioligand binding inhibition assay, DRB1*1302. Put shortly:
as §4

The target of a further experiment is T9, purified HLA DRB1*1501 (Homo sapiens, UniProt P01903+P01911).
T9 construct: purified from EBV transformed homozygous cell lines or single MHC allele transfected 721.221, C1R, or fibroblast lines; made in house
The experiment in a line: HLA-DR radioligand binding inhibition assay, DRB1*1501. Put shortly:
as §4

The target of another experiment is T10, purified HLA DRB3*0101 (Homo sapiens, UniProt P01903+P79483).
T10 construct: purified from EBV transformed homozygous cell lines or single MHC allele transfected 721.221, C1R, or fibroblast lines; made in house
The experiment in a line: HLA-DR radioligand binding inhibition assay, DRB3*0101. The following applies: IC50 nM purified HLA DRB3 *0101, purified HLA DRB3*0101. The procedure: as §1
as §2, with “n-octylglucoside. […] The pH was reduced to 8.0 and the eluates were concentrated by centrifugation in Centriprep 30 concentrators at 2000 rpm (Amicon, Beverly, Mass.).” for “n-octylglucoside.”
as §3, with “Instruments). […] Competitor peptides are tested in 2-4 complete, independent experiments, at concentrations ranging from […].” for “Instruments).”

A further experiment has as its target T11, purified HLA DRB4*0101 (Homo sapiens, UniProt P01903+P13762, G164S).
T11 construct: purified from EBV transformed homozygous cell lines or single MHC allele transfected 721.221, C1R, or fibroblast lines; made in house
Nature of the experiment: HLA-DR radioligand binding inhibition assay, DRB4*0101. The following applies: IC50 nM purified HLA DRB4 *0101, purified HLA DRB4*0101. A digest of the protocol:
as §4

The target of another experiment is T12, purified HLA DRB5*0101 (Homo sapiens, UniProt P01903+Q30154).
T12 construct: purified from EBV transformed homozygous cell lines or single MHC allele transfected 721.221, C1R, or fibroblast lines; made in house
Nature of the experiment: HLA-DR radioligand binding inhibition assay, DRB5*0101. The following applies: IC50 nM purified HLA DRB5 *0101, purified HLA DRB5*0101. Put shortly: as §4

The next experiment concerns the target T13, purified HLA DRB1*0802 (Homo sapiens, UniProt P01903+P01911, A100R/A103L/A169T/F76Y/H45Y/I96F/K41T/L162R/M171V/P40S/Q125H/Q178H/Q39Y/Q99D/R218S/R42G/S66Y/V115G/W38E).
T13 construct: purified from EBV transformed homozygous cell lines or single MHC allele transfected 721.221, C1R, or fibroblast lines; made in house
The experiment in a line: HLA-DR radioligand binding inhibition assay, DRB1*0802. The following applies: IC50 nM purified HLA DRB1 *0802, purified HLA DRB1*0802. The method, then:
as §1
as §2, with “n-octylglucoside. […] The pH was reduced to 8.0 and the eluates were concentrated by centrifugation in Centriprep 30 concentrators at 2000 rpm (Amicon, Beverly, Mass.).” for “n-octylglucoside.”
as §3, with “Instruments). […] Competitor peptides are tested in 2-4 complete, independent experiments, at concentrations ranging from […].” for “Instruments).”

T6 sequence (P01903 26-254, other chains not shown): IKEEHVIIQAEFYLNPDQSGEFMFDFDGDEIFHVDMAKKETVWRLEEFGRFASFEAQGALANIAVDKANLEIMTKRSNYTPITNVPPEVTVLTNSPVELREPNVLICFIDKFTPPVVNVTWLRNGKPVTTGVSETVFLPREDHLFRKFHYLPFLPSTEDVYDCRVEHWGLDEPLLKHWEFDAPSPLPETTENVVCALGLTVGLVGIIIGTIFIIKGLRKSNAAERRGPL

Turning to `CC[C@H](C)[C@H](NC(=O)[C@H](CS)NC(=O)[C@H](CC(C)C)NC(=O)[C@@H](N)CCCCN)C(=O)N[C@@H](Cc1ccc(O)cc1)C(=O)N[C@H](C(=O)N[C@@H](CC(=O)O)C(=O)N[C@@H](CC(N)=O)C(=O)N[C@@H](CO)C(=O)N[C@H](C(=O)N[C@@H](CCCNC(=N)N)C(=O)N1CCC[C@H]1C(=O)N[C@@H](CCC(=O)O)C(=O)N[C@@H](CCC(=O)O)C(=O)N[C@@H](CC(C)C)C(=O)O)[C@@H](C)CC)[C@@H](C)O` [Peptide 9019.0159], the half-inhibitory concentration (IC50) was 64 nM on purified HLA DRB1*0301; 95 nM at purified HLA DRB1*0401; 3170 nM on purified HLA DRB1*0405; 1100 nM at purified HLA DRB1*0701; 15900 nM on purified HLA DRB1*0901; greater than 20000 nM on purified HLA DRB1*1101. Moreover, the IC50 on purified HLA DRB1*1201 is greater than 20000 nM; on purified HLA DRB1*1302, 879 nM; at purified HLA DRB1*1501, 25 nM; at purified HLA DRB3*0101, greater than 20000 nM; on purified HLA DRB4*0101, 33 nM; at purified HLA DRB5*0101 it was 4620 nM.
Regarding `CC[C@H](C)[C@H](NC(=O)[C@@H](NC(=O)[C@H](Cc1c[nH]cn1)NC(=O)[C@@H](N)CC(C)C)C(C)C)C(=O)N[C@@H](CCCCN)C(=O)N[C@@H](CO)C(=O)N[C@@H](CC(=O)O)C(=O)N[C@@H](CC(C)C)C(=O)N[C@H](C(=O)N[C@@H](CC(N)=O)C(=O)N[C@@H](CCC(=O)O)C(=O)N[C@@H](CCC(=O)O)C(=O)N[C@@H](C)C(=O)N[C@H](C(=O)NCC(=O)O)[C@@H](C)O)C(C)C` [Peptide 9019.0005], the IC50 on purified HLA DRB1*0405 is 37 nM; at purified HLA DRB1*0701 it was 3890 nM; at purified HLA DRB1*0802 it was greater than 20000 nM; on purified HLA DRB1*0901, greater than 20000 nM; on purified HLA DRB1*1201 it was greater than 20000 nM; on purified HLA DRB3*0101, greater than 20000 nM. The same molecule had an IC50 at purified HLA DRB5*0101 greater than 20000 nM.

These data come from patent US20140377340A1, “HLA-DR BINDING PEPTIDES AND THEIR USES” (priority 2007, published 2014).
